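A five-concentration, 48-hour dose response in 96-well plates underlies each endpoint, interpolated linearly between surrounding concentrations. The concentration for full growth arrest is given as TGI.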
Experiments:
Experiment in all cases: NCI tumour cell line growth inhibition, 48 h
[1] = test system: HCT-15 colon
[2] = test system: MALME-3M melanoma
[3] = test system: U251 CNS
[4] = test system: OVCAR-3 ovarian
[5] = test system: UACC-62 melanoma
[6] = test system: SK-MEL-28 melanoma
[7] = test system: MDA-MB-435
[8] = test system: RPMI-8226 leukemia
[9] = test system: CCRF-CEM leukemia
[10] = test system: HOP-62 NSCLC
[11] = test system: BT-549 breast
[12] = test system: NCI-H23 lung
[13] = test system: SR leukemia
[14] = test system: PC-3 prostate
[15] = test system: RXF 393 renal
[16] = test system: MCF7 breast
[17] = test system: SK-MEL-2 melanoma
[18] = test system: COLO 205 colon
[19] = test system: HCT-116 colon
[20] = test system: SN12C renal
[21] = test system: M14 melanoma
[22] = test system: SW-620 colon
[23] = test system: K-562 leukemia
[24] = test system: OVCAR-5 ovarian
[25] = test system: DU-145 prostate
[26] = test system: HOP-92 NSCLC
[27] = test system: SK-OV-3 ovarian
[28] = test system: NCI-H226 lung
[29] = test system: UO-31 renal
[30] = test system: HT29 colon
[31] = test system: T-47D breast
[32] = test system: MDA-N
[33] = test system: IGROV1 ovarian
[34] = test system: OVCAR-8 ovarian
[35] = test system: NCI/ADR-RES ovarian
[36] = test system: A498 renal
[37] = test system: NCI-H460 lung
[38] = test system: MOLT-4 leukemia
[39] = test system: OVCAR-4 ovarian
[40] = test system: UACC-257 melanoma
[41] = test system: SNB-19 CNS
[42] = test system: KM12 colon
[43] = test system: CAKI-1 renal
[44] = test system: MDA-MB-231 breast
[45] = test system: TK-10 renal
[46] = test system: SF-295 CNS
[47] = test system: LOX IMVI melanoma
[48] = test system: HL-60(TB) leukemia
[49] = test system: SNB-75 CNS
[50] = test system: EKVX NSCLC
[51] = test system: ACHN renal
[52] = test system: SF-268 CNS
[53] = test system: 786-0 renal
[54] = test system: SK-MEL-5 melanoma
[55] = test system: NCI-H522 lung
[56] = test system: HS 578T breast
[57] = test system: A549 NSCLC
[58] = test system: HCC-2998 colon

`CC(C)(C)[Si](C)(C)OCC1OC(n2cnc3c(N)ncnc32)CC1OS(C)(=O)=O` (stereo unspecified) was tested, and the TGI [1] was over 100 µM, the TGI [2] was over 100 µM and the TGI [3] was over 100 µM. The TGI [4] was over 100 µM, the TGI [5] was over 100 µM and the TGI [6] was over 100 µM. The TGI [7] was over 100 µM, the TGI [8] was over 100 µM and the TGI [9] was over 100 µM. For the same compound, the TGI [10] was over 100 µM, the TGI [11] was over 100 µM and the TGI [12] was over 100 µM. The TGI [13] was over 100 µM, the TGI [14] was over 100 µM and the TGI [15] was over 100 µM. The TGI [16] was over 100 µM, the TGI [17] was over 100 µM and the TGI [18] was over 100 µM. It also gave a TGI [19] of over 100 µM, a TGI [20] of over 100 µM and a TGI [21] of over 100 µM. For the same compound, the TGI [22] was over 100 µM, the TGI [23] was over 100 µM and the TGI [24] was over 100 µM. The TGI [25] was over 100 µM, the TGI [26] was 17.3 µM and the TGI [27] was over 100 µM. The TGI [28] was over 100 µM, the TGI [29] was over 100 µM and the TGI [30] was over 100 µM. It also gave a TGI [31] of over 100 µM, a TGI [32] of over 100 µM and a TGI [33] of over 100 µM. For the same compound, the TGI [34] was over 100 µM, the TGI [35] was over 100 µM and the TGI [36] was over 100 µM. It also gave a TGI [37] of over 100 µM, a TGI [38] of over 100 µM and a TGI [39] of over 100 µM. The TGI [40] was over 100 µM, the TGI [41] was over 100 µM and the TGI [42] was over 100 µM. It also gave a TGI [43] of over 100 µM, a TGI [44] of over 100 µM and a TGI [45] of over 100 µM. The TGI [46] was over 100 µM, the TGI [47] was over 100 µM and the TGI [48] was over 100 µM.

`O=C1c2ccccc2C(C2c3ccccc3C(=O)c3cc(Br)ccc32)c2ccc(Br)cc21` (stereo unspecified) showed a TGI [1] of over 100 µM, a TGI [49] of over 100 µM and a TGI [2] of over 100 µM. It also gave a TGI [3] of over 100 µM, a TGI [4] of over 100 µM and a TGI [5] of over 100 µM. It also gave a TGI [6] of over 100 µM, a TGI [50] of over 100 µM and a TGI [7] of over 100 µM. The TGI [8] was over 100 µM, the TGI [51] was over 100 µM and the TGI [10] was over 100 µM. It also gave a TGI [11] of over 100 µM, a TGI [12] of over 100 µM and a TGI [14] of over 100 µM. It also gave a TGI [15] of over 100 µM, a TGI [16] of over 100 µM and a TGI [18] of over 100 µM. For the same compound, the TGI [19] was over 100 µM, the TGI [20] was over 100 µM and the TGI [21] was over 100 µM. For the same compound, the TGI [22] was over 100 µM, the TGI [23] was over 100 µM and the TGI [24] was over 100 µM. The TGI [25] was over 100 µM, the TGI [52] was over 100 µM and the TGI [26] was over 100 µM. It also gave a TGI [27] of over 100 µM, a TGI [28] of over 100 µM and a TGI [29] of over 100 µM. For the same compound, the TGI [30] was over 100 µM, the TGI [31] was over 100 µM and the TGI [32] was over 100 µM. It also gave a TGI [33] of over 100 µM, a TGI [53] of over 100 µM and a TGI [34] of over 100 µM. It also gave a TGI [54] of over 100 µM, a TGI [55] of over 100 µM and a TGI [35] of over 100 µM. It also gave a TGI [56] of over 100 µM, a TGI [36] of over 100 µM and a TGI [38] of over 100 µM. For the same compound, the TGI [39] was over 100 µM, the TGI [57] was over 100 µM and the TGI [40] was over 100 µM. The TGI [41] was over 100 µM, the TGI [42] was over 100 µM and the TGI [43] was over 100 µM. For the same compound, the TGI [44] was over 100 µM, the TGI [45] was over 100 µM and the TGI [46] was over 100 µM. The TGI [47] was over 100 µM and the TGI [58] was over 100 µM.

Source: PubChem BioAssay (NCI)
